Experiment [1] has as its system MCF7. Nature of the experiment: Cell survival by cell counting, MCF7. In kind it is cell-based, human. The note with it: MCF7, 72 h, 20 nM 4-OH Tamoxifen, 50 μM 2-O-Bn-InsP5 alone or in combination. On the procedure:
Cells seeded in a 24-well plate were treated with the indicated compounds in serum free DMEM or DMEM containing 0.5% FBS (PC3). After 72 h, the number of surviving cells was assessed by manual cell counting or by using the cell counter CDA-500 (Sysmex, Milton Keynes, UK). Alternatively, after 48 h, the number of apoptotic cells was assessed by acridine orange/ethidium bromide assay as described ([Piccolo et al, 2004]; [Maffucci et al, 2005]). SRB test was carried out in SKOV-3 and PC3 seeded in 96-well plate (3800 cells per well or 5800 cells per well, respectively) after 72 h of treatment as described ([Cappella et al, 2001]).
Data are mean±s.e. of n=4 independent experiments carried out in duplicate. […] Data are mean±s.e. of n=5 independent experiments carried out in duplicate. […] Data are mean±s.e. of n=6 independent experiments carried out in duplicate. […] Data are mean±s.e. of n=2 independent experiments carried out in duplicate. In all cases (A–D), cells were treated for 72 h and the number of surviving cells was assessed by cell counting. […] In all cases (E, F), cells were treated for 72 h and the number of surviving cells was assessed by SRB assay and data are mean±s.e. of two experiments carried out in quadruplicate.

The target in experiment [2] is T1, PDK1 (Homo sapiens, UniProt O15530).
T1 sequence (O15530 1-556): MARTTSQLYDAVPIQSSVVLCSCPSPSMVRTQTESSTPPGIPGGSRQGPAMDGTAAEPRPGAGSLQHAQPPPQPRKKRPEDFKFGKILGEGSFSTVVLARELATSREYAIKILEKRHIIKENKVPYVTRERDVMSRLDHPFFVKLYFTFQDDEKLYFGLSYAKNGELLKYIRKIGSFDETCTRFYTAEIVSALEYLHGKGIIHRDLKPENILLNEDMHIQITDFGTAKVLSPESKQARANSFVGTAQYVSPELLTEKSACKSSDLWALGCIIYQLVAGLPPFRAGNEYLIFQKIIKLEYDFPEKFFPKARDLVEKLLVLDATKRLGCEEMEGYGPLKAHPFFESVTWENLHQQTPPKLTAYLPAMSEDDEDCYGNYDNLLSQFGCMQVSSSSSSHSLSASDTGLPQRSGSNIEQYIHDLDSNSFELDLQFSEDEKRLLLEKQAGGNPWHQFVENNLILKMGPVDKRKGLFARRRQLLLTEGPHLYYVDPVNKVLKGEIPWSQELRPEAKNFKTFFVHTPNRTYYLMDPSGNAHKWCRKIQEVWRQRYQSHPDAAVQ
Nature of the experiment: SelectScreen kinase profiling: PDK1. It counts as biochemical. The note with it: 1 µM compound; [ATP] 100 µM; single point. On the procedure:
Effect of the indicated compounds on the activity of various kinases was assessed by SelectScreen Kinase Profiling Service (Invitrogen-Life Technologies, Paisley, UK). Assays were performed using 1 μM of the tested compounds and ATP concentration as indicated in the corresponding tables. In the case of […] a screen using 10 μM of the compound was also carried out, as indicated in the corresponding table.

Results on six compounds are retold here after publication PMC2813745, “A novel inhibitor of the PI3K/Akt pathway based on the structure of inositol 1,3,4,5,6-pentakisphosphate” (British Journal of Cancer, 2010).

On to “4-hydroxy-tamoxifen [4-OH tamoxifen, reference compound]”, for which the “number of surviving cells” value in experiment [1] was “reduced the number of surviving cells”.
For the compound `O=P(O)(O)O[C@H]1[C@H](OP(=O)(O)O)[C@@H](OP(=O)(O)O)[C@H](OP(=O)(O)O)[C@@H](OP(=O)(O)O)[C@H]1OP(=O)(O)O` [Ins(1,2,3,4,5,6)P6], the “% Inhibition Mean” value in experiment [2] worked out at 18%.
On the same count and under the same terms, next, `O=P(O)(O)O[C@H]1[C@H](O)[C@@H](OP(=O)(O)O)[C@H](OP(=O)(O)O)[C@@H](OP(=O)(O)O)[C@H]1O` [Ins(1,3,4,5)P4]: 56%.
Regarding `O=P(O)(O)O[C@@H]1[C@H](O)[C@H](O)[C@@H](OP(=O)(O)O)[C@H](OP(=O)(O)O)[C@H]1O` [Ins(1,4,5)P3], the “% Inhibition Mean” value in experiment [2] amounted to 17%.
Turning to `O=P(O)(O)O[C@H]1[C@H](OP(=O)(O)O)[C@@H](OP(=O)(O)O)[C@@H](O)[C@@H](O)[C@@H]1OP(=O)(O)O` [Ins(1,4,5,6)P4], in experiment [2], the “% Inhibition Mean” value was determined as 33%.
Take `O=P(O)(O)O[C@H]1[C@H](OP(=O)(O)O)[C@@H](OP(=O)(O)O)[C@@H](O)[C@@H](O)[C@@H]1OP(=O)(O)O` [Ins(3,4,5,6)P4]: the “% Inhibition Mean” value in experiment [2] turned out to be 35%.
